Reference: patent publication US11255843B2, “Compositions and methods for identifying metabolically active agents” (Northwestern University, priority 2016, dated 2022)
Structures can show the parent of a compound that is named as a salt.

Columns and labels:
Bmal1−/− Beta TC-6 cells = experiment: High throughput insulin-NanoLuc screen for drugs that restore glucose-stimulated insulin secretion; type: cell-based, mouse; conditions: 10 uM compound + 20 mM glucose, 1 hr
Method: A high throughput screen was used to identify small molecule drugs capable of restoring glucose-stimulated insulin secretion in clock-deficient beta cells. Bmal1^−/− beta cells and primary islets display reduced glucose-stimulated insulin secretion (GSIS) and that agonists of Gq-coupled muscarinic receptor and diacyl glycerol (DAG) signaling rescue secretion to that of wild type cells. Compounds to augment GSIS in Bmal1^−/− cells were identified by adding compounds in combination with 20 mM glucose and using the DAG mimetic Phorbol 12-myristate 13-acetate (PMA), which rescues GSIS in these cells, as a positive control. The spectrum collection small molecule compound library (MicroSource Discovery Systems, Inc) consisting of 2700 known drugs and drug-like molecules was screened for compounds that augment insulin secretion in Bmal1^−/− Beta TC-6 cells. Insulin Nanoluc expressing Bmal1^−/− Beta TC-6 cells (30,000 cells/well) were plated in 384 well plates and cultured for 4 days at 37° C. with 5% CO2. Prior to the assay, cells were washed once with KRB buffer containing 0 mM glucose and starved in glucose-free KRB buffer for 1 hour. After aspirating, KRB buffer containing 20 mM glucose in addition to small molecules (10 uM) were added, and the cells were incubated for 1 hour. As a negative control, 16 wells received only 20 mM glucose, which fails to elicit insulin secretion in Bmal1^−/− cells, and an additional 16 wells received KRB buffer containing 20 mM glucose and 10 μM PMA, which is known to induce insulin secretion in Bmal1^−/− mouse islets and Beta TC-6 cells. After 1 hour, the supernatant was collected and centrifuged at 500G for 30 min. The supernatant was transferred into a fresh 384-well assay plate containing Nano-Glo Luciferase Assay Substrate (Promega) and luciferase intensity was measured by EnSpire Plate Reader (PerkinElmer) Intensity was measured within 30 minutes.
Z scores for luciferase intensities produced by screened compounds were calculated from the following formula: z=(X−μ)/σ where z is the z-score, X is intensity of compounds, μ is the intensity of negative control (20 mM glucose), and σ is the standard deviation of negative control. Hit compounds were defined as those that elicited a response of more than 3 standard deviations from the mean (Z score>3). Hit Compounds
The Spectrum Collection small molecule compound library (MicroSource Discovery Systems, Inc), which consists of 2700 known drugs and drug-like molecules, was screened for compounds that augment insulin secretion in Bmal1^−/− Beta TC-6 cells. Insulin Nanoluc-expressing Bmal1^−/− Beta TC-6 cells (30,000 cells/well) were placed into 384 well plates and cultured for 4 days at 37° C. and 5% CO2. The cells were washed once and starved in KRB buffer containing 0 mM glucose for 1 hr. After removing the KRB, KRB buffer containing 20 mM glucose in addition to the small molecules (10 uM) were added, and the cells were incubated for 1 hr. As a negative control, 16 wells received KRB buffer with only 20 mM glucose, which fails to elicit insulin secretion in Bmal1^−/− cells, and as a positive control, 16 wells received KRB buffer containing 20 mM glucose and 10 μM PMA, which is known to induce insulin secretion in both Bmal1^−/− mouse islets and Beta TC-6 cells. After 1 hr, the supernatant was collected and centrifuged at 500 g for 30 min. The supernatant was transferred into a fresh 384-well assay plate containing Nano-Glo Luciferase Assay Substrate (Promega), and luciferase intensity was measured by EnSpire Plate Reader (PerkinElmer) within 30 minutes.
Z scores for luciferase intensities produced by screened compounds were calculated from the following formula: z=(X−μ)/σ (where z is the Z score, X is the intensity of the compounds, μ is the intensity of negative control (20 mM glucose), and a is the standard deviation of negative control). A row-based correction factor was applied to all luciferase readings to adjust for logarithmic signal decay. […]

[1] = system: PdxCreER;Bmal1flx/flx islets; experiment: Static insulin secretion assay in islets isolated from tamoxifen-treated PdxCreER;Bmal1flx/flx mice (ELISA); type: cell-based, mouse; conditions: islets from tamoxifen-treated mutant vs control mice, stimulated 1 hour; 1 mM carbachol, 10 μM PMA, 10 μM ionomycin, 2.5 μM forskolin, 1 mM 8-Br-cAMP
Method: Mouse pancreatic islets were isolated via bile duct collagenase digestion (Collagenase P, Sigma) and Ficoll gradient separation and left to recover overnight (16 hours) at 37° C. in RPMI 1640 with 10% fetal bovine serum (FBS), 1% 1-glutamine, and 1% penicillin/streptomycin. For standard insulin release assays, five islets were statically incubated in Krebs-Ringer buffer (KRB) and stimulated for 1 hour at 37° C. with various glucose concentrations, 30 mM KCl, 2.5 μM forskolin, 1 mM 8-Br-cAMP, 10 mM 1-leucine+2 mM 1-glutamine, 1 mM carbachol, 10 μM PMA, or 10 μM ionomycin. Supernatant was collected and assayed for insulin content by enzyme-linked immunosorbent assay (ELISA; Crystal Chem Inc.). Islets were then sonicated in acid-ethanol solution and solubilized overnight at 4° C. before assaying total insulin content by ELISA. For rhythmic insulin release assays, islets were first synchronized with 10 μM forskolin (Sigma) for 1 hour and allowed to recover for 16 hours. Insulin secretion assays were then performed as above in individual groups of five islets every 4 hours for 72 hours (FIG. 5A). Human islets (obtained from IIDP) were cultured in RPMI 1640 with 10% human AB serum, 1% 1-glutamine, and 1% penicillin/streptomycin (see table in FIG. S4A for details of sex, age, BMI, and IIDP ID numbers of the three donors). For the rhythmic analysis of RNAs in murine and human islets, RNA was isolated (described below) in groups of 200 islets every 4 hours for 48 or 24 hours, respectively, starting 40 hours after forskolin synchronization (FIG. 5A).
For in vivo delivery of tamoxifen (Sigma, dissolved in corn oil), mice received three intraperitoneal (i.p.) injections of 200 μg tamoxifen/g body weight, administered every other day. Subsequent experiments were conducted 10 to 14 days after tamoxifen treatment. For in vitro administration of tamoxifen, isolated islets were incubated for 24 hours with […] tamoxifen (dissolved in ethanol) prior to transfer to complete media for 24 hours to recover. Islets were then synchronized with forskolin prior to insulin secretion assays as described above.

C2C12 myotubes = conditions: 62.5 uM DMOG; DMSO-treated controls 22 hrs, p<0.05
Method: For PERIOD2:LUCIFERASE (PER2:LUC) reporter assays, C2C12 myoblast cells were first infected with PER2:LUC-expressing lentivirus (gift of A. Liu, University of Memphis) (18454201) and maintained in DMEM that included 10% FBS and 2.5 μg/ml blastocidin to select for stable Per2-luc integration. Myoblasts were then differentiated for 5 days with 2% horse serum, and then synchronized in 50% horse serum for 2 hours.

Beta-TC6 cells = experiment: Intracellular calcium determination with Fura2-AM dye; type: cell-based, mouse; conditions: Fura2-AM ratiometric, 10 μM ionomycin
Method: BetaTC-6 cells were plated at a density of 100,000 cells per well in black 96-well plates with clear bottoms and cultured overnight at 37° C. and 5% CO2. Islets were dispersed to single cells by incubating in 0.05% Trypsin-EDTA at 37° C. for 3 min and plated at a density of 100 islets per well in laminin-treated black 96-well plates with clear bottoms and cultured in complete media for 48 hours at 37° C. and 5% CO2. Cells were then washed with BSA-free KRB buffer with no glucose and loaded with 5 μM Fura-2 (Invitrogen) and 0.04% Pluronic F-127 (Invitrogen) for 30 min at 37° C. Following a wash with BSA-free KRB, Fura-2 intensity was measured after injection of either glucose or ionomycin (Sigma) to final concentrations of 20 mM or 10 μM, respectively. Cells were alternately excited with 340- and 380-nm light, and the emitted light was detected at 510 nm using a Cytation 3 Cell Imaging Multi-Mode Reader (Bio Tek) at sequential 30-s intervals. Raw fluorescence data were exported to Microsoft Excel and expressed as the 340/380 ratio for each well.

wild-type βTC-6 cells [2] = experiment: Glucose-stimulated insulin secretion assay in Beta TC-6 cells (ELISA); type: cell-based, mouse; conditions: for effect on glucose-stimulated insulin secretion and calcium flux (validation of hits): hit compounds at 10 and 100 μM, 0 or 20 mM glucose
Method: Beta TC-6 cells (300,000 cells/well) were seeded into poly-L-lysine-coated 24 well plates and cultured for 48-72 hrs at 37° C. and 5% CO2. The cells were washed once and incubated in KRB buffer containing 0 mM glucose for 1 hr. Cells were then treated for 1 hr with KRB buffer containing 0 or 20 mM glucose in the presence of hit compounds (including ivermectin, alexidine, and tomatine at final concentrations of 10 and 100 μM) or an equivalent volume of DMSO as a vehicle control. Supernatants were then collected and centrifuged at 500G for 30 min and assayed for insulin content by ELISA (Crystal Chem Inc). Cell lysates were harvested in acid-ethanol solution (0.18M HCl in 70% Ethanol), sonicated, and solubilized overnight at 4° C. before assaying total insulin content by ELISA. For insulin secretion assays following prolonged ivermectin treatment, cells were first treated with 10 μm ivermectin for 24 hrs prior to the 1 hr incubation with 0 mM glucose KRB buffer.

myotubes and MEFs = experiment: Core clock gene expression after chemical hypoxia mimetic (qPCR); type: cell-based, mouse; conditions: hypoxia induced with chemical mimetic CoCl2
Method: Total RNA was extracted from C2C12 and MEF cell pellets and snap-frozen mouse skeletal muscle tissue using Tri-Reagent (Molecular Research Center, Inc). For muscle tissue samples, tissue was homogenized using a TissueLyser II apparatus (Qiagen). cDNA was synthesized using the High Capacity cDNA Reverse Transcription kit (Applied Biosystems). Real-time PCR was performed and analyzed using a CFX384 (Biorad). PCR conditions were: 10 min at 95° C., then 35 cycles of 10 s at 95° C., 15 s at 60° C. Relative expression levels (normalized to 18S rRNA (C2C12 and MEF) or β-actin (skeletal muscle)) were determined using the comparative CT method.

wild-type βTC-6 cells [3] = experiment: Calcium flux (Fura-2) after exposure to glucose and compound; type: cell-based, mouse; conditions: ivermectin 10 μM with glucose
Method: BetaTC-6 cells were plated at a density of 100,000 cells per well in black 96-well plates with clear bottoms and cultured overnight at 37° C. and 5% CO2. Cells were then washed with BSA-free KRB buffer with no glucose and loaded with 5 μM Fura-2 (Invitrogen) and 0.04% Pluronic F-127 (Invitrogen) for 30 min at 37° C. Following a wash with BSA-free KRB, Fura-2 intensity was measured following injection of either glucose alone or indicated compounds. Cells were alternately excited with 340 nm and 380 nm wavelength light, and the emitted light was detected at 510 nm using a Cytation 3 Cell Imaging Multi-Mode Reader (Bio Tek) at sequential 30-second intervals. Raw fluorescence data were exported to Microsoft Excel and expressed as the 340/380 ratio for each well.

Compound: CCCCCCCCCCCCCC(=O)O[C@@H]1[C@@H](C)[C@@]2(O)[C@@H](C=C(CO)C[C@]3(O)C(=O)C(C)=C[C@@H]23)[C@@H]2C(C)(C)[C@]12OC(C)=O [PMA, phorbol 12-myristate 13-acetate]
- glucose-dependent insulin secretion in the absence of BMAL1 (hit compound) (Bmal1−/− Beta TC-6 cells): rescues GSIS
- insulin secretion in PdxCreER;Bmal1flx/flx islets in response to secretagogue [1]: restored insulin secretion

Compound: COC(=O)CNC(=O)C(=O)OC [DMOG, dimethyloxalyl glycine]
- period of PER2:LUC oscillations (C2C12 myotubes): 23 h

Compound: Nc1ncnc2c1nc(Br)n2[C@@H]1O[C@@H]2COP(=O)(O)O[C@H]2[C@H]1O [8-br-cAMP]
- insulin secretion in PdxCreER;Bmal1flx/flx islets in response to secretagogue [1]: secreted significantly less insulin than controls

Compound: C[C@H](CCC(=O)O)C[C@H](C)C[C@H](C)C(=O)/C=C(\O)[C@H](C)C[C@H](C)C/C=C/[C@@H](C)[C@@H](O)[C@@H](C)[C@@H](O)C[C@@H]1CC[C@@](C)([C@H]2CC[C@@](C)([C@@H](C)O)O2)O1 [ionomycin]
- insulin secretion in PdxCreER;Bmal1flx/flx islets in response to secretagogue [1]: significantly reduced in mutants
- intracellular Ca2+ (Beta-TC6 cells): raised intracellular Ca2+

Compound: CNC1(C)C2CCC(C2)C1(C)C (stereo not drawn) [mecamylamine hydrochloride]
- glucose-dependent insulin secretion in the absence of BMAL1 (hit compound) (Bmal1−/− Beta TC-6 cells): stimulate glucose-dependent insulin secretion

Compound: C[N+](C)(C)CCOC(N)=O [carbachol]
- glucose-dependent insulin secretion in the absence of BMAL1 (hit compound) (Bmal1−/− Beta TC-6 cells): stimulate glucose-dependent insulin secretion
- insulin secretion in PdxCreER;Bmal1flx/flx islets in response to secretagogue [1]: restored insulin secretion

Compound: CCCCC(CC)CNC(=N)NC(=N)NCCCCCCNC(=N)NC(=N)NCC(CC)CCCC (stereo not drawn) [alexidine hydrochlodire]
- glucose-dependent insulin secretion in the absence of BMAL1 (hit compound) (Bmal1−/− Beta TC-6 cells): stimulate glucose-dependent insulin secretion
- effect on glucose-stimulated insulin secretion and calcium flux (validation of hits) (wild-type βTC-6 cells [2]): impact both glucose-stimulated insulin secretion and calcium flux

Compound: [Cl][Co][Cl] [CoCl2, cobalt chloride]
- expression of core clock genes (myotubes and MEFs): increased expression of core clock genes

Compound: C[C@H]1CC[C@]2(NC1)O[C@H]1C[C@H]3[C@@H]4CC[C@H]5C[C@@H](O[C@@H]6O[C@H](CO)[C@H](O[C@@H]7O[C@H](CO)[C@@H](O)[C@H](O[C@@H]8OC[C@@H](O)[C@H](O)[C@H]8O)[C@H]7O[C@@H]7O[C@H](CO)[C@@H](O)[C@H](O)[C@H]7O)[C@H](O)[C@H]6O)CC[C@]5(C)[C@H]4CC[C@]3(C)[C@H]1[C@@H]2C [tomatine]
- glucose-dependent insulin secretion in the absence of BMAL1 (hit compound) (Bmal1−/− Beta TC-6 cells): stimulate glucose-dependent insulin secretion
- effect on glucose-stimulated insulin secretion and calcium flux (validation of hits) (wild-type βTC-6 cells [2]): impact both glucose-stimulated insulin secretion and calcium flux

Compound: ivermectin
- glucose-dependent insulin secretion in the absence of BMAL1 (hit compound) (Bmal1−/− Beta TC-6 cells): stimulate glucose-dependent insulin secretion
- glucose-stimulated insulin secretion in wild-type βTC-6 cells (wild-type βTC-6 cells [2]; acute or prolonged exposure, presence or absence of glucose): enhances glucose-stimulated insulin secretion
- effect on glucose-stimulated insulin secretion and calcium flux (validation of hits) (wild-type βTC-6 cells [2]): impact both glucose-stimulated insulin secretion and calcium flux
- calcium flux in wild-type βTC-6 cells (wild-type βTC-6 cells [3]): enhances glucose-stimulated insulin secretion and calcium flux
